Assay results published in article PMC2862773 (International journal of biological macromolecules, 2010).
Entries after “also recorded” stand apart in the source; their conditions may differ.

Assays:
[1] = target: E. coli ATP synthase (purified F1 or membrane bound F1Fo) (Escherichia coli, UniProt P0ABA6+P0ABB0+P0ABB4); type: biochemical; conditions: for Residual ATPase Activity (%): left over ATPase activity at maximal inhibition
[2] = tested on: E. coli strain pBWU13.4/DK8; test: Growth yield in limiting glucose medium in presence of bioflavonoid compounds; type: cell-based, Escherichia coli; conditions: OD595 after ~20 hours growth at 37 °C; control 100, null 45
[3] = tested on: rat brain and liver mitochondrial F1Fo ATP synthase; conditions: cited from earlier work
[4] = tested on: E. coli enzyme mutants αR283A/Q, αE284A/Q, βS263A/Q, γT273A/Q, γQ274A/K, γT277A/Q, γE278A/Q; test: Inhibition of polyphenol binding pocket mutants of E. coli enzyme; type: biochemical, Escherichia coli; conditions: unpublished results of the authors
E. coli ATP synthase = conditions: cited from earlier work
[5] = target: E. coli ATP synthase (purified F1 or membrane bound enzyme) (Escherichia coli, UniProt P0ABA6+P0ABB0+P0ABB4); test: Reversal of ATPase inhibition by dilution or centrifuge columns; type: biochemical; conditions: dilution to non-inhibitory concentration or twice through centrifuge columns
[6] = tested on: cultured human lymphoblastoid and other mammalian cells; conditions: not in ρ° cells; cited from earlier work
[7] = tested on: normal human prostate cells; conditions: at similar concentrations (up to 50μmol/L/day); cited from earlier work
[8] = tested on: androgen-responsive human prostate carcinoma cells (LNCaP); conditions: concentrations of up to 50μmol/L/day; cited from earlier work
[9] = purified F1 or membrane bound F1Fo
[10] = mitochondrial F1Fo ATP synthase

SMILES	Residual ATPase Activity (%) ([1]; 60 min preincubation)	Growth yield in limiting glucose (%) [2] [%]	Extent of inhibition of ATPase activity, in words [1, 9]	further results
O=c1cc(-c2ccccc2)oc2cc(O)cc(O)c12 [Chrysin]	40	73		
O=c1cc(-c2ccc(O)c(O)c2)oc2cc(O)cc(O)c12 [Luteolin]		87	insignificant	
O=c1c(O)c(-c2ccc(O)c(O)c2)oc2cc(O)cc(O)c12 [Quercetin]				IC50 [3, 10]: 55 to 65 µM; Inhibition of mutant enzymes [4]: loss of inhibition; IC50 (E. coli ATP synthase; E. coli ATP synthase): ~33 µM; Reversibility of inhibition (E. coli ATP synthase; binds non-covalently at the polyphenol binding site): reversible; Inhibition of E. coli ATP synthase (E. coli ATP synthase): ~ 80%
O=c1c(-c2ccc(O)cc2)coc2cc(O)ccc12 [Daidzein]		96	insignificant	
COc1ccc(-c2cc(=O)c3c(O)cc(O[C@@H]4O[C@H](CO[C@@H]5O[C@@H](C)[C@H](O)[C@@H](O)[C@H]5O)[C@@H](O)[C@H](O)[C@H]4O)cc3o2)cc1O [Diosmin]			partial inhibition	
COc1cc(C2Oc3cc([C@H]4Oc5cc(O)cc(O)c5C(=O)[C@@H]4O)ccc3OC2CO)ccc1O (stereo partly drawn) [Silibinin]	0	47	complete inhibition	
O=c1c(-c2ccc(O)cc2)coc2cc(O)cc(O)c12 [Genistein]		87		
Oc1cc(O)c2c(c1)O[C@H](c1ccc(O)c(O)c1)[C@H](O)C2 [(−)-Epicatechin]	0	53	complete inhibition	
O=c1c(O)c(-c2ccc(O)cc2O)oc2cc(O)cc(O)c12 [Morin hydrate]	0	46	complete inhibition	
O=c1cc(-c2ccccc2)oc2cc(O)c(O)c(O)c12 [Baicalein]	0	48	complete inhibition	
C[C@@H]1O[C@@H](OC[C@H]2O[C@@H](Oc3c(-c4ccc(O)c(O)c4)oc4cc(O)cc(O)c4c3=O)[C@H](O)[C@@H](O)[C@@H]2O)[C@H](O)[C@H](O)[C@H]1O [Rutin hydrate]		87		
O=c1c(-c2ccc(O)cc2)coc2cc(O[C@@H]3O[C@H](CO)[C@@H](O)[C@H](O)[C@H]3O)cc(O)c12 [genistin]				Inhibition of ATPase activity ([3]; up to 140 μM): did not inhibit
Oc1cc(O)cc(/C=C/c2ccc(O)c(O)c2)c1 [piceatannol]				Inhibition of mutant enzymes [4]: loss of inhibition
O=c1cc(-c2ccc(O)cc2)oc2cc(O)cc(O)c12 [Apigenin]	60			Reversibility of inhibition [5]: reversible; IC50 [3, 10]: ~100 µM
COc1ccc([C@@H]2CC(=O)c3c(O)cc(O[C@@H]4O[C@H](CO[C@@H]5O[C@@H](C)[C@H](O)[C@@H](O)[C@H]5O)[C@@H](O)[C@H](O)[C@H]4O)cc3O2)cc1O [Hesperidin]	40	76	partial inhibition	
CC[C@H]1/C=C/C=C/C[C@@H](C)[C@H](O)[C@@](C)(O)C(=O)[C@@H](C)[C@H](O)[C@@H](C)C(=O)[C@@H](C)[C@H](O)[C@@H](C)/C=C/C(=O)O[C@@H]2[C@H](C)[C@H](CC1)O[C@]1(CC[C@H](C)[C@H](C[C@@H](C)O)O1)[C@H]2C [Oligomycin]				Time to apoptotic suicide response [6]: 12 to 18 h
O=c1c(O)c(-c2ccccc2)oc2cc(O)cc(O)c12 [Galangin]		93	insignificant; also recorded: no inhibition	
Oc1ccc(/C=C/c2cc(O)cc(O)c2)cc1 [resveratrol]				Effect on rate of cell death [7]: no effect; Time to inhibition [3, 10]: 1 to 2 min; Inhibition of mutant enzymes [4]: loss of inhibition; Effect on apoptosis [8]: stimulation of apoptosis
NC12CC3CC(CC(C3)C1)C2 [Amantadin, reference compound]	0	51	complete inhibition	Inhibition of ATPase activity (maximal extent) ([1]; purified F1 or membrane bound F1Fo, 60 min preincubation): ~ 100%
CC(N)C12CC3CC(CC(C3)C1)C2 (stereo not drawn) [Rimantadine, reference compound]	0	52	complete inhibition	
